Assay results reported in US20240108740A1, “THERAPEUTIC COMPOSITIONS INCLUDING SPN10 AND USES THEREOF” (Stealth BioTherapeutics Inc., priority 2022, published 2024).
Residues, ends and D or L forms follow the SMILES beside them.

Tests used:
[1] = system: mitochondrial aconitase; assay: Example 53: mitochondrial aconitase activity in burn injury; details: mouse, in vivo
Description: Murine subjects will be subjected to burn injury or sham and administered peptide conjugates, aromatic-cationic peptides, SPN10(s) alone or in combination with aromatic-cationic peptides, or control vehicle as described above. Mitochondria will be isolated from burned and control tissues and mitochondrial aconitase activity assessed using a commercially available kit.

[2] = system: New Zealand white rabbits; assay: Acute myocardial infarction injury in a rabbit model; format: in vivo; details: IV infusion, 30-minute ischemia, 3 hours post-reperfusion
Experimental: New Zealand white rabbits will be used in this study. The rabbits will be males and >10 weeks in age. Environmental controls in the animal rooms will be set to maintain temperatures of 61° to 72° F. and relative humidity between 30% and 70%. Room temperature and humidity will be recorded hourly, and monitored daily. There will be approximately 10-15 air exchanges per hour in the animal rooms. Photoperiod will be 12-hr light/12-hr dark (via fluorescent lighting) with exceptions as necessary to accommodate dosing and data collection. Routine daily observations will be performed. Harlan Teklad, Certified Diet (2030C), rabbit diet will be provided approximately 180 grams per day from arrival to the facility. In addition, fresh fruits and vegetables will be given to the rabbit 3 times a week. […]
In all cases, treatments will be started approximately 30 minutes after the onset of a 30-minute ischemic insult (coronary occlusion) and continued for up to 3 hours following reperfusion. In all cases, cardiovascular function will be monitored both prior to and during ischemia, as well as for up to 180 minutes (3 hours) post-reperfusion. The experiments will be terminated 3 hours post-reperfusion (end of study); irreversible myocardial injury (infarct size by histomorphometery) at this time-point will be evaluated, and will be the primary-end-point of the study.

[3] = system: Sprague Dawley rats; assay: Example 49: progression of tissue damage following a burn; details: rat, in vivo
Experimental: Sprague Dawley rats will be randomized into the following groups; sham-burn (SB), burn with saline treatment (B), burn with peptide conjugate-treatment (BP), burn with aromatic-cationic peptides (BP2), burn with SPN10(s) (BP3), and burn with SPN10(s)+aromatic-cationic peptides (BP4). Band BP, BP2, BP3 and BP4 animals will receive a 30% total body surface area full thickness burns by immersing the dorsal body into 100° C. water for 12 seconds with immediate fluid resuscitation. […] Wound re-epithelialization, contraction, and depth will be assessed via gross morphology and histologically over a period of 21 days. […]
Apoptosis of hair follicles of the skin will be measured using TUNEL labeling and activated caspase-3 immunostaining using skin samples obtained between 0 and 48 hours post-burn. Quantification of TUNEL and caspase-3 staining will be done on digitally acquired images at high power. The number of positive cells per high power field will be determined, and compared among the groups.
[…] mapping will be performed using Doppler imaging to assess wound blood flow. Two hours post-burn, the dorsum of the animal will be imaged on a scanning laser Doppler apparatus to quantify the superficial blood flow distribution in the skin within and outside of the burn area. For […] mapping, 100 male Sprague-Dawley rats will be used. […]

In the case of `N=C(N)NCCC[C@H](NC(=O)[C@@H](N)Cc1c[nH]c2ccccc12)C(=O)N[C@@H](Cc1c[nH]c2ccccc12)C(=O)N[C@@H](CCCCN)C(N)=O` [SPN10, H-L-Trp-L-Arg-L-Trp-L-Lys-NH2] (H-WRWK-NH2), the “mitochondrial aconitase activity after burn injury” value [1] was “reduce mitochondrial aconitase activity to sham control levels”, the “infarct size compared to the vehicle control group” value [2] was “decreased infarct size” and the “burn-induced apoptosis and blood flow” value [3] was “reduce burn-induced apoptosis and blood flow”. For the same molecule, the “wound healing and progression of burn injuries” value [3] was “accelerate wound healing and attenuate the progression of burn injuries”.
